From EP2218450A1, “Memantine for treating bipolar mood disorders resistant to conventional treatments” (Serra, Gino, priority 2009, dated 2010)
Where two headings read alike, the source gives them in different places.

Assays:
[1] = system: dopamine receptor sensitization; settings: cited from earlier work
bipolar patients = system: bipolar patients
Protocol: We report, in order to exemplify, the most clinically significant cases in bipolar patients (DSM IV-TR) resistant to hitherto available treatments.
Memantine was administered at 10-30 mg/day (according to the doses used for Alzheimer Disease and in many off-label uses of the drug in other psychiatric disorders) to 18 bipolar patients (mean age 42, range 24-61, SD 11): 13 BP type 1 (11 women and 2 men) and 5 BP type 2 (3 women and 2 men).
The Memantine treatment was added to the ongoing treatment which was left unmodified. The severity of the patients' condition before Memantine, and the change after Memantine addition was evaluated on the GCI-BP Overall Bipolar Illness scale: • GCI-BP Overall Bipolar Illness: Severity • 1. Normal, not ill; • 2. Minimally ill; • 3. Mildly ill; • 4. Moderately ill; • 5. Markedly ill; • 6. Severely ill; • 7. Very severely ill.
All patients have been followed-up for 24 weeks. […] Very much improved • 2. Much improved • 3. […] No change • 5. Minimally worse • 6. Much worse • 7. Very much worse

NMDA glutamate receptor = settings: compared to more powerful NMDA antagonists such as phencyclidine, ketamine and MK-801; cited from earlier work
depressive symptoms = settings: cited from earlier work
catatonic schizophrenia = settings: cited from earlier work
OCD = settings: cited from earlier work
[2] = system: Pervasive development disorders; settings: five open clinical studies and one case report; cited from earlier work
binge eating disorder = settings: five obese patients affected by binge eating disorder; cited from earlier work
addictions = settings: cited from earlier work
[3] = at 24 weeks, Memantine 10-30 mg/day added to ongoing treatment, 18 bipolar patients

SMILES: C[C@]12N[C@H](Cc3ccccc31)c1ccccc12 [MK.801]
- prevention of dopamine receptor sensitization induced by electroconvulsive shock [1]: completely prevents
- prevention of dopamine receptor sensitization induced by imipramine [1]: completely prevents

SMILES: CC12CC3CC(C)(C1)CC(N)(C3)C2 [Memantine]
- patients very much or much improved (bipolar patients; after 24 weeks of Memantine treatment, 18 bipolar patients): 72.2%
- rapid cyclers that reached stability (bipolar patients; among the ten rapid cyclers, 24 weeks): six
- patients remained unchanged (score 4), GCI-BP overall Bipolar Illness: Change from preceding phase (bipolar patients; [3]): 3 patients
- patients scored 1 (very much improved), GCI-BP overall Bipolar Illness: Change from preceding phase (bipolar patients; [3]): 9 patients
- patients scored 2 (much improved), GCI-BP overall Bipolar Illness: Change from preceding phase (bipolar patients; [3]): 4 patients
- patients scored 3 (minimally improved), GCI-BP overall Bipolar Illness: Change from preceding phase (bipolar patients; [3]): 2 patients
- mean time to improvement (bipolar patients; range 6-132, SD 48,4, Memantine 10-30 mg/day): 55 days
- affinity for the receptor (NMDA glutamate receptor): low affinity
- effect on depressive symptoms (depressive symptoms; patient, 10 mg/die): improvement in the depressive symptoms
- effect on depressive symptoms (depressive symptoms; person, 20 mg/die in combination with conventional antidepressant treatment, within a week): improvement in various depressive symptoms
- effect in schizophrenia, controlled clinical trial (catatonic schizophrenia; in combination with an atypical antipsychotic): No improvement was observed
- effect on symptoms of catatonic schizophrenia (catatonic schizophrenia; three case reports, 10 mg twice a day in two patients, 10 mg per day in the other): improvement in the symptoms
- patients with symptomatic improvements (OCD; case reports, three patients with OCD, 5-15 mg a day): Two
- patients with symptomatic improvement (OCD; open-label study, out of 14, Memantine 20 mg in combination with SSRIs): 6 patients
- effect on symptoms [2]: symptomatic improvement
- effect on appetite, binge eating and body weight (binge eating disorder): diminished appetite, the disappearance of binge eating (in two out of five patients) and a reduction of body weight
- benefit in nicotine or cocaine addiction (addictions): no benefit has been detected
- symptoms of heroin withdrawal (addictions): effective in reducing the symptoms of heroin withdrawal
- symptoms of alcohol withdrawal syndrome (addictions; one study (41)): reduction of the symptoms of alcohol withdrawal syndrome
- craving for alcohol (addictions; two studies (39, 40)): reduction in craving for alcohol
- alcohol consumption (addictions; two studies (42, 43), in one the effect did not significantly differ from placebo): reduction in alcohol consumption

SMILES: O=C(O)C1CN(CCCP(=O)(O)O)CCN1 (stereo not drawn) [CPP]
- prevention of dopamine D2 receptors sensitization induced by imipramine [1]: fails to pevent
